Patent US20080287398A1, “COLD MENTHOL RECEPTOR-1 ANTAGONISTS” (priority 2007, published 2008)
“And” between values parts separate entries of the source, which are not always exact repeats. Equal values may be shown once. Read-outs that look alike come from different tables or passages of the source.

Experiments:
Sprague-Dawley rats = assay: CFA-induced paw radiant heat hypersensitivity; type: in vivo, rat; details: for ED50 / inhibition in vivo at 30 mg/kg: Rattus norvegicus; for inhibition in vivo at 30 mg/kg: read-out: % Reversal; for % Reversal: rat, 30 mg/kg p.o.
Method: Intraplantar injection of Complete Freund's Adjuvant (CFA) in rodents results in a long-lasting inflammatory reaction, characterized by a pronounced hypersensitivity to both thermal and mechanical stimuli. This hypersensitivity peaks between 24-72 hours following injection and can last for several weeks. […] This paradigm also may be conducted with a multiple dosing or a prophylactic dosing regime designed to alter the course of hyperalgesia development. This test predicts the analgesic, anti-allodynic and antihyperalgesic effect of numerous effective clinical agents, including NSAIDS such as acetaminophen, aspirin and ibuprofen, and opioids such as morphine.
Each rat was placed in a test chamber on a warm glass surface and allowed to acclimate for approximately 10 minutes. A radiant thermal stimulus (beam of light) was then focused through the glass onto the plantar surface of each hind paw in turn. The thermal stimulus was automatically shut off by a photoelectric relay when the paw was moved or when the cut-off time was reached (20 seconds for radiant heat at ˜5 Amps). An initial (baseline) response latency to the thermal stimulus was recorded for each animal prior to the injection of CFA. Twenty-four hours following intraplantar CFA injection, the response latency of the animal to the thermal stimulus was then re-evaluated and compared to the animal's baseline response time. […] Immediately following the post-CFA latency assessment, test compound or vehicle (usually Solutol, hydroxypropyl methylcellulose, hydroxypropyl beta-cyclodextrin or PEG-400) was administered i.p. or p.o. to rats. […] The percent reversal (% R) of hypersenstivitiy was calculated according to the following formula:
% Reversal=(Treatment Response-CFA Response)/(Baseline Response-CFA Response)×100.

canine TRPM8 [1] = target: T1, canine TRPM8 (Canis lupus familiaris, UniProt Q1A7N1); assay: In vitro canine TRPM8 functional assay (Ca2+-sensitive dye, FLIPR/FDSS, icilin activation); type: cell-based; details: HEK293 cells expressing canine TRPM8, icilin activation; for inhibition at 1 µM: HEK293, read-out: % I (1 μM), 1 μM compound; for IC50: eight-point dose-response; for % I (0.5 μM): 0.5 μM compound; for inhibition at 0.5 µM: HEK293, read-out: % I (0.5 μM), 0.5 μM compound; for % I (1 μM): 1 μM compound
T1 construct: expressed in transfected cells
T1 sequence (Q1A7N1 1-1104): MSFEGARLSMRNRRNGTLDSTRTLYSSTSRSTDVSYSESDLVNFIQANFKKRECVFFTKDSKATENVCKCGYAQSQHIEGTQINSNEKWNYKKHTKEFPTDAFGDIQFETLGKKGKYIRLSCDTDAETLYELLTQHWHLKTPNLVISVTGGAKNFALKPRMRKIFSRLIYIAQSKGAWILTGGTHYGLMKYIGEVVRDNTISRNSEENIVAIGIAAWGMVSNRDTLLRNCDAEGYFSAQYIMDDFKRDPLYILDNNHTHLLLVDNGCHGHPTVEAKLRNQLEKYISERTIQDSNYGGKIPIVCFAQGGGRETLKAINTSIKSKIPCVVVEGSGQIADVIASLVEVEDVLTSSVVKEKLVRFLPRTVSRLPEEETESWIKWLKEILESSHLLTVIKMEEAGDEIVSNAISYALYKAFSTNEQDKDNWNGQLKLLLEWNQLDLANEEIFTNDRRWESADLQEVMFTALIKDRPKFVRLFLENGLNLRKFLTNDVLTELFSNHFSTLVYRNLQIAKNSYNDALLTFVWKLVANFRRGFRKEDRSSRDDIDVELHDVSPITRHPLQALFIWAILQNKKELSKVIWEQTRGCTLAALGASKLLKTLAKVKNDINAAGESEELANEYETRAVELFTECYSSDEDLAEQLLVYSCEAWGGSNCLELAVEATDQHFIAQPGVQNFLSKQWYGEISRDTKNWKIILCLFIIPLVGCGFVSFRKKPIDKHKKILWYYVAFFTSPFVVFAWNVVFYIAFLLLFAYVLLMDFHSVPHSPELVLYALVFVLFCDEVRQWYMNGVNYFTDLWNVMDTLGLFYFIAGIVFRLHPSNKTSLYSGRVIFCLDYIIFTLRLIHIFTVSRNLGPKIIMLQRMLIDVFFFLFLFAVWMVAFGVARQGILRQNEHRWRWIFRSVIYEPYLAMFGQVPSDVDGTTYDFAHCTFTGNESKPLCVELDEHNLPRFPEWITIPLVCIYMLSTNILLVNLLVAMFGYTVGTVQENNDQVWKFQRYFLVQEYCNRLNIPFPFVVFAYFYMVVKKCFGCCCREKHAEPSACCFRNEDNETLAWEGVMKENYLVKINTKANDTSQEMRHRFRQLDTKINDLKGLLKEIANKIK
How it was run: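 HEK293 cells stably expressing canine TRPM8, loaded with Calcium 3 dye, preincubated with compound for 5 min before icilin at a concentration giving ~80% maximal response. Ca2+ fluorescence by FLIPR or FDSS; basal-subtracted, normalized to % maximal response, quadruplicate wells, sigmoidal fit for EC50/IC50.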

canine TRPM8 [2] = target: T1, canine TRPM8; assay: TRPM8 patch clamp assay (whole-cell, HEK293 cells); type: cell-based; details: HEK293 cells stably transfected with canine TRPM8, 100 μM menthol, 22° C.
Method: For patch clamp experiments, HEK293 cells stably transfected with canine TRPM8 were cultured in DMEM supplemented with 10% fetal bovine serum, 100 units/ml penicillin, 100 μg/ml streptomycin and 1 mg/ml G418. Cells were maintained at 37° C. and in 5% CO2.
The extracellular solution contained (in mM): NaCl, 132; EGTA, 1; KCl, 5.4; MgCl2, 0.8; HEPES, 10; glucose, 10; pH=7.4. Recordings were performed using the conventional whole-cell patch clamp technique, 1-2 days after plating cells onto glass coverslips at densities appropriate for single cell recording. Currents were amplified by a patch clamp amplifier and filtered at 2 kHz (Axopatch 200B, Molecular Devices, Union City, Calif.). Menthol (100 μM) was applied to the cell at 0.5 ml/min via a gravity-fed perfusion system. Recordings involving menthol activation were performed at 22° C.
In experiments where temperatures were varied, temperature ramps were generated by cooling the perfusate in an in-line cooler (Model SC-20, Warner Instruments, Hamden, Conn.) controlled by a temperature controller (Model CL-100, Warner Instruments). The temperature in the vicinity of the recorded cell was measured with a custom-made miniature thermo-microprobe connected to a monitoring thermometer (Model TH-8, Physitemp, Clifton, N.J.), and sampled using Digidata 1322A and pClamp 9.0 (Molecular Devices), as were the currents concurrently measured in the whole-cell patch clamp mode. The current was continuously sampled (at 100 Hz) at a holding potential of −60 mV.
Compounds were diluted from 10 mM DMSO stocks (stored at −20° C.) into an extracellular solution either containing 100 μM menthol or subjecting to cooling. Increasing concentrations of a compound were applied to a cell in a cumulative manner and concentration-dependent responses were measured after steady-state activation was achieved by either 100 μM menthol or cooling to 10° C. A saturating concentration of a reference antagonist was applied at the end of an experiment (either in the presence of 100 μM menthol or 10° C. temperature) to establish the baseline from which all the other measurements were subtracted.
Percentage inhibition by a compound was calculated as follows: 100×(1−Icomp/I0); where Icomp and I0 are steady-state current amplitudes in either the presence or absence of a concentration of the compound.

Structure (SMILES)	% I (0.5 μM) (canine TRPM8 [1]) [%]	IC50 (canine TRPM8 [1]; read-out: IC50) [µM]	other results
CCOP(=O)(OCC)C(Cc1ccc(F)c(F)c1)c1sc2ccccc2c1Br (centres unmarked) [Cpd 127, [1-(3-Bromo-benzo[b]thiophen-2-yl)-2-(3,4-difluoro-phenyl)-ethyl]-phosphonic acid dethyl ester]			ED50 (Sprague-Dawley rats; po): 5.2 mg/kg; inhibition in vivo at 30 mg/kg (Sprague-Dawley rats; po, 1 h): 88%; ED50 (Sprague-Dawley rats; po, 1 h, read-out: oral ED50): 5.2 mg/kg; inhibition at 1 µM (canine TRPM8 [1]): 100%; IC50 (canine TRPM8 [1]; IC50 (μM)): 0.052 µM
CCOP(=O)(OCC)C(Cc1ccc(F)c(Cl)c1)c1sc2ccccc2c1Br (racemic) [Cpd 244]	103	0.028	% Reversal (Sprague-Dawley rats; time 2 h (printed 2 h or 2)): 45%
CCOP(=O)(OCC)C(Cc1ccc(F)cc1)c1sc2ccccc2c1Br (centres unmarked) [Cpd 238, [1-(3-Bromo-benzo[b]thiophen-2-yl)-2-(4-fluoro-phenyl)-ethyl]-phosphonic acid diethyl ester]			inhibition in vivo at 30 mg/kg (Sprague-Dawley rats; po, 2 h): 56%; IC50 (canine TRPM8 [2]): 0.53 nM; inhibition at 0.5 µM (canine TRPM8 [1]): 104%; IC50 (canine TRPM8 [1]; IC50 (μM)): 0.044 µM
CCOP(=O)(OCC)C(Cc1ccc(F)c(C(F)(F)F)c1)c1sc2ccccc2c1Cl (racemic) [Cpd 298]	99	0.085	% Reversal (Sprague-Dawley rats; time 1 h): 20%
CCOP(=O)(OCC)C(Cc1ccc(OC(F)(F)F)cc1)c1sc2ccccc2c1Br (centres unmarked) [Cpd 155, [1-(3-Bromo-benzo[b]thiophen-2-yl)-2-(4-trifluoromethoxy-phenyl)-ethyl]-phosphonic acid diethyl ester]			inhibition in vivo at 30 mg/kg (Sprague-Dawley rats; po, 1 h): 138%; IC50 (canine TRPM8 [2]): 12.5 nM; inhibition at 0.5 µM (canine TRPM8 [1]): 104%; IC50 (canine TRPM8 [1]; IC50 (μM)): 0.046 µM and 0.12 µM and 0.09 µM
CC(C)OP(=O)(OC(C)C)C(Cc1ccc(C(F)(F)F)cc1)c1sc2ccccc2c1Br (centres unmarked) [Cpd 336]	102	0.043	% Reversal (Sprague-Dawley rats; time 1 h): 64%
CC(C)OP(=O)(OC(C)C)C(Cc1ccc(F)c(F)c1)c1sc2ccccc2c1Cl (centres unmarked) [Cpd 12, [1-(3-Chloro-benzo[b]thiophen-2-yl)-2-(3,4-difluoro-phenyl)-ethyl]-phosphonic acid diisopropyl ester]			inhibition in vivo at 30 mg/kg (Sprague-Dawley rats; ip, 1 h): 105%; inhibition at 1 µM (canine TRPM8 [1]): 100%; IC50 (canine TRPM8 [1]; IC50 (μM)): 0.043 µM and 0.13 µM
CCOP(=O)(OCC)C(Cc1cccc(Cl)c1)c1sc2ccccc2c1Br (centres unmarked) [Cpd 137, [1-(3-Bromo-benzo[b]thiophene-2-yl)2-(3-chloro-phenyl)-ethyl]-phosphonic acid diethyl ester]			inhibition in vivo at 30 mg/kg (Sprague-Dawley rats; po, 1 h): 34%; inhibition at 0.5 µM (canine TRPM8 [1]): 102%; IC50 (canine TRPM8 [1]; IC50 (μM)): 0.024 µM
CCOP(=O)(OCC)C(Cc1ccc(SC)cc1)c1sc2ccccc2c1Cl (racemic) [Cpd 299]	101	0.141	% Reversal (Sprague-Dawley rats; time 1 h): 23%
CC(C)OP(=O)(OC(C)C)C(Cc1ccc(Cl)c(F)c1)c1sc2ccccc2c1Br (centres unmarked) [Cpd 190]	104	0.102	% Reversal (Sprague-Dawley rats; time 1 h): 45%
CC(C)OP(=O)(OC(C)C)C(Cc1ccc(F)cc1)c1sc2ccccc2c1Br (centres unmarked) [Cpd 197]	102		% Reversal (Sprague-Dawley rats; time 2 h (printed 2 h or 2)): 23%; % I (1 μM) (canine TRPM8 [1]): 100%
CC(C)OP(=O)(OC(C)C)C(Cc1cc(C(F)(F)F)ccc1F)c1sc2ccccc2c1Br (centres unmarked) [Cpd 335]	102	0.035	% Reversal (Sprague-Dawley rats; time 1 h): 0%
CC(C)OP(=O)(OC(C)C)C(Cc1cccc(Cl)c1F)c1sc2ccccc2c1Cl (centres unmarked) [Cpd 185]	103	0.071	
CC(C)OP(=O)(OC(C)C)C(Cc1ccc(C(F)(F)F)c(F)c1)c1sc2ccccc2c1Cl (centres unmarked) [Cpd 174]	104	0.089	
CCOP(=O)(OCC)C(Cc1ccc(F)c(F)c1)c1sc2ccc(F)cc2c1C (centres unmarked) [Cpd 45, [2-(3,4-Difluoro-phenyl)-1-(5-fluoro-3-methyl-benzo[b]thiophene-2-yl)-ethyl]-phosphonic acid diethyl ester]			inhibition at 1 µM (canine TRPM8 [1]): 100%; IC50 (canine TRPM8 [1]; IC50 (μM)): 0.164 µM
COc1ccc(CC(c2sc3ccccc3c2Br)P(=O)(OC(C)C)OC(C)C)c(F)c1 (racemic) [Cpd 163]	103	0.02	
CC(C)OP(=O)(OC(C)C)C(Cc1cccc(SC(F)(F)F)c1)c1sc2ccccc2c1Cl (centres unmarked) [Cpd 255]	103	0.058	
CCOP(=O)(OCC)C(Cc1cccc(Cl)c1F)c1sc2ccccc2c1Cl (centres unmarked) [Cpd 272]	103	0.114	
CCOP(=O)(OCC)C(Cc1cccc(C(F)(F)F)c1Cl)c1sc2ccccc2c1Br (racemic) [Cpd 151]	103	0.12	
CCOP(=O)(OCC)C(Cc1ccccc1F)c1cc2ccccc2s1 (centres unmarked) [Cpd 80]		0.43	% I (1 μM) (canine TRPM8 [1]): 93%; % I (5 μM) (canine TRPM8 [1]; 5 μM compound): 100%
CC(C)CCOP(=O)(OCCC(C)C)C(Cc1ccc(F)c(F)c1)c1sc2ccccc2c1Br (racemic) [Cpd 211]	97	0.095	
CCOP(=O)(OCC)C(Cc1cccc(N)c1)c1sc2ccccc2c1Br (centres unmarked) [Cpd 318, [2-(3-Amino-phenyl)-1-(3-bromo-benzo[b]thiophen-2-yl)-ethyl]-phosphonic acid diethyl ester]			inhibition at 0.5 µM (canine TRPM8 [1]): 100%; IC50 (canine TRPM8 [1]; IC50 (μM)): 0.211 µM
CCOP(=O)(OCC)C(Cc1cccc(C(F)(F)F)c1Cl)c1sc2ccccc2c1Cl (racemic) [Cpd 280]	101	0.227	
CCOP(=O)(OCC)C(Cc1cccc(Cl)c1F)c1sc2ccccc2c1Br (racemic) [Cpd 143]	101	0.067	
CCOP(=O)(OCC)C(Cc1cc(C(F)(F)F)cc(C(F)(F)F)c1)c1sc2ccccc2c1Cl (racemic) [Cpd 282]	100	0.235	
CCOP(=O)(OCC)C(Cc1ccc(Cl)c(C(F)(F)F)c1)c1sc2ccccc2c1Br (centres unmarked) [Cpd 139]	102	0.06	
CCOP(=O)(OCC)C(Cc1ccc(F)c(O)c1)c1sc2ccccc2c1Br (centres unmarked) [Cpd 225, [1-(3-Bromo-benzo[b]thiophen-2-yl)-2-(4-fluoro-3-hydroxy-phenyl)-ethyl]-phosphonic acid diethyl ester]			inhibition at 0.5 µM (canine TRPM8 [1]): 103%; IC50 (canine TRPM8 [1]; IC50 (μM)): 0.027 µM
CCOP(=O)(OCC)C(Cc1ccc(OC)c(C(F)(F)F)c1)c1sc2ccccc2c1Cl (racemic) [Cpd 292]	99	0.216	
CCOP(=O)(OCC)C(Cc1cc(OC)c(Cl)cc1F)c1sc2ccccc2c1Br (racemic) [Cpd 164]	94	0.082	
CCOP(=O)(OCC)C(Cc1ccc(F)c(F)c1)c1oc2cccc(F)c2c1Br (racemic) [Cpd 206]		0.098	% I (1 μM) (canine TRPM8 [1]): 100%
